Results: patent US20250345277A1, “Ionizable Liposome, Preparation Thereof, and Application Thereof in Gene Delivery” (MAXIRNA (ZHEJIANG) TECHNOLOGY CO. LTD., priority 2021, published 2025)

Legend:
[1] = Entrapment efficiency of LNP preparation encapsulating EGFP mRNA; format: physicochemical; details: LNP ionizable lipid/DOPE/cholesterol/DSPE-PEG2000 35/16/46.5/2.5 mol% encapsulating EGFP mRNA
Procedure, shortened: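 LNPs of ionizable lipid/DOPE/cholesterol/DSPE-PEG2000 (35/16/46.5/2.5 mol %) made by microfluidic mixing of ethanol lipids with EGFP mRNA in 20 mM citrate pH 6.1 (1:3 by volume), lipid:mRNA about 10:1 by weight. Buffer exchanged to DPBS by ultrafiltration, then 0.2 μm filtered; mRNA 0.002–0.5 mg/mL.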

PBMC cells = assay: In vitro transfection of PBMC cells with EGFP mRNA LNP preparation (flow cytometry); format: cell-based; parameters: Cell Viability: concentration or dose not given beside the values
From the text: (§1) The description is based on peripheral blood mononuclear cells PBMC (Shanghai Oribiotech Co., Ltd.), human peripheral blood leukemia T cell Jurkat (ATCC), tumor infiltrating lymphocyte TIL (isolated from resected tumor tissue of a liver cancer patient, the preparation method refers to CN114763530A), mouse bone marrow-derived dendritic cells DC2.4 (Cell Bank of the Chinese Academy of Sciences), and Chinese hamster ovary cells CHO (ATCC) were used as verified cell lines for liposome transfection. PBMC, Jurkat, and TIL cells grew in suspension, while DC2.4 and CHO cells grew by adherent culture. All the operation steps of cell culture must strictly abide by the prescribed procedures, and sterile reagents is used to perform aseptic operations under a sterile workbench. The main steps are as follows: • 1) Cell recovery: the preserved cell cryopreservation solution was taken out of the −80° C. refrigerator, and was immediately put in a 37° C. water bath for rapid and continuous shaking, and was completely melted within one minute. Fresh medium was added to the 15 mL centrifuge tube in advance, and the cell solution was added to the centrifuge tube in a biological safety cabinet. A centrifuge tube of the same quality was taken and placed symmetrically in a centrifuge, centrifuged at a low speed at 1200 rpm for 5 min. After centrifugation, the supernatant was removed, and an appropriate amount of medium was slowly added along the tube wall. After the cells were evenly dispersed by blowing gently, the cell suspension was pipette and added to the culture bottle prepared in advance. The state and distribution of the cells in the early stage of recovery were observed under a microscope. The culture bottle was placed in a 5% CO2 incubator and incubated at 37° C., and the recovery time was recorded. • 2) Cell subculture: Under the microscope, if the cell density in the field of view reaches 80%-90%, the cells can be subcultured. Adherent cells need to be digested with trypsin. In order to avoid the residual serum in the culture medium to reduce the activity of trypsin, DPBS solution was added to wash once after removing the original culture medium. After remove the DPBS solution, trypsin was added to degrade the protein at the junction between cells. This separates the cells for further culture. The cells were gently shaked evenly and put into the incubator for digestion for 2 min. Immediately after the digestion was completed, an appropriate amount of medium was added to the original petri dish to terminate the digestion. Finally, the cells were carefully blowed off using a pipette and blowed until they are evenly dispersed, and then inoculated and subcultured at a certain ratio according to the experimental requirements.
• 1) Coating antibodies: 6-well plates were pre-coated, CD3 and CD28 antibodies were taken out from the −20° C. refrigerator, and melted for later use. The above two antibodies were added into the DPBS solution at a concentration of 5 µg/mL, mixed well, added into a six-well plate at 1 mL/well, put in a 37° C. incubator, and waited 4 hours for later use. • 2) PBMC recovery: the frozen PBMC cells were taken out from the −80° C. refrigerator, put in a 37° C. water bath to quickly thaw the cells, added to the preheated medium after thawing, centrifuged at 1200 rpm for 5 min, the supernatant was discarded, and an appropriate amount of AIMN-V medium with 500 U/ml IL-2 was added to resuspend PBMC. • 3) the DPBS coated with the antibody was removed with a pipette, the cell suspension was transferred to a six-well plate pre-coated with the antibody at 4 mL per well, placed in a 5% CO2 incubator at 37° C. for 3-5 days for activation and culture. • 4) According to the experimental arrangement, PBMC cells were plated on a 24-well plate 30 minutes in advance on the day of cell transfection. […]

TIL cells = assay: In vitro transfection of TIL cells with EGFP mRNA LNP preparation; format: cell-based, human
From the text: as §1, with “In order to avoid the residual serum in the culture medium to reduce the activity of trypsin, DPBS solution was added to wash once after removing the original culture medium. After remove the DPBS solution, trypsin was added to degrade the protein at the junction between cells. This separates the cells for further culture. The cells were gently shaked evenly and put into the incubator for digestion for 2 min. Immediately after the digestion was completed, an appropriate amount of medium was added to the original petri dish to terminate the digestion. Finally, the cells were carefully blowed off using a pipette and blowed until they are evenly dispersed, and then inoculated and subcultured at a certain ratio according to the experimental requirements.” left out

Jurkat cells = assay: In vitro transfection of Jurkat cells with EGFP mRNA LNP preparation; format: cell-based, human
From the text: (§2) The description is based on peripheral blood mononuclear cells PBMC (Shanghai Oribiotech Co., Ltd.), human peripheral blood leukemia T cell Jurkat (ATCC), tumor infiltrating lymphocyte TIL (isolated from resected tumor tissue of a liver cancer patient, the preparation method refers to CN114763530A), mouse bone marrow-derived dendritic cells DC2.4 (Cell Bank of the Chinese Academy of Sciences), and Chinese hamster ovary cells CHO (ATCC) were used as verified cell lines for liposome transfection. PBMC, Jurkat, and TIL cells grew in suspension, while DC2.4 and CHO cells grew by adherent culture. All the operation steps of cell culture must strictly abide by the prescribed procedures, and sterile reagents is used to perform aseptic operations under a sterile workbench. The main steps are as follows: • 1) Cell recovery: the preserved cell cryopreservation solution was taken out of the −80° C. refrigerator, and was immediately put in a 37° C. water bath for rapid and continuous shaking, and was completely melted within one minute. […] The culture bottle was placed in a 5% CO2 incubator and incubated at 37° C., and the recovery time was recorded. • 2) Cell subculture: Under the microscope, if the cell density in the field of view reaches 80%-90%, the cells can be subcultured. […]

CHO cells = assay: In vitro transfection of CHO cells with EGFP mRNA LNP preparation; format: cell-based, Chinese hamster
From the text: as §2

[2] = In vitro stability test of LNP preparation stored at 4-8 °C; format: physicochemical; details: stored at 4-8° C. for 16 weeks; transfection tested on DC2.4
Procedure: The preparation from Example 2 was stored at 4° C.-8° C. Samples were taken every other week to test the transfection performance of the samples on DC2.4, the size of the nanoparticles and the polydispersity index PDI. The whole process lasted 16 weeks. […] Other LNP preparations were stored at 4-8° C. for 16 weeks, and the particle size, PDI, and cell transfection efficiency also maintained the initial state.

[3] = PBMCs, LNP preparation added with ApoE4
[4] = after in vitro transfection, ApoE4 did not affect viability

## CCCCCCCCCCCCC(O)CN(CCOCCN(CCOCCN(CC(O)CCCCCCCCCCCC)CC(O)CCCCCCCCCCCC)CCN1CCN(CCOCCN(CC(O)CCCCCCCCCCCC)CC(O)CCCCCCCCCCCC)CC1)CC(O)CCCCCCCCCCCC (stereo not shown) [B-C14]
[1]
  Entrapment Efficiency: 95.21%
PBMC cells; PBMC, in the absence of AopE4
  transfection efficiency (FIG. 2): low transfection efficiency
PBMC cells; PBMC, with ApoE4
  transfection efficiency (FIG. 3): over 75%
PBMC cells; PBMC, with ApoE4 versus without
  change of transfection efficiency with ApoE4 (FIG. 3): increased
PBMC cells; [3]
  Cell Viability: 90.00%
  Positive Rate (EGFP): 85.50%
PBMC cells; PBMCs, after in vitro transfection, ApoE4 did not affect viability
  cell viability by flow cytometry (FIG. 1): high viability
PBMC cells; PBMCs, with ApoE4, EGFP mRNA expression level normalized based on the sample with the highest fluorescence intensity
  Fluorescence Intensity: 1
TIL cells; [4]
  cell viability by flow cytometry (FIG. 1): high viability
TIL cells; in the absence of AopE4
  transfection efficiency (FIG. 2): low transfection efficiency
TIL cells; with ApoE4 versus without
  change of transfection efficiency with ApoE4 (FIG. 3): increased
Jurkat cells; [4]
  cell viability by flow cytometry (FIG. 1): high viability
Jurkat cells; in the absence of AopE4
  transfection efficiency (FIG. 2): high transfection efficiency
CHO cells; after in vitro transfection
  cell viability by flow cytometry (FIG. 1): high viability
CHO cells; in the absence of AopE4
  transfection efficiency (FIG. 2): high transfection efficiency
[2]
  particle size, PDI and cell transfection efficiency on storage (FIG. 8): remained in the initial state
